Assay results as given in US6716819B2, “Use of xylitol to reduce ionic strength and activate endogenous antimicrobials for prevention and treatment of infections” (University of Iowa Research Foundation, priority 2000, dated 2004).

Columns and labels:
[1] = cited from earlier work
E. coli = test: Bacterial killing by nasal lavage fluid, luminescence assay; assay type: cell-based; details: increasing xylitol concentration (serial dilutions of 300 mM), 4 hours at 30° C.
Experimental: FIG. 4. Effect of modifying ionic strength and xylitol concentration of killing of E. coli by nasal lavage liquid. Nasal lavage liquid was diluted with increasing concentrations of NaCl (bottom X-axis) or xylitol (top X-axis). SEM are smaller than the symbol.
Nasal lavage fluid was collected from normal volunteers. A flexible catheter (18-gauge; Jelco, Tampa, Fla.) was inserted into each nostril and the area flushed four times with 4 ml of sterile water. Cells were removed by centrifugation and the fluid was filtered with a sequential 0.8/0.2 μm Supor Acrodisc PF (GelamnSciences, Ann Arbor, Mich.). To study the effect of xylitol on bacterial killing by endogenous antimicrobial factors, a luminescence assay was used in which E. coli express the genes from Photorhabdus luminescens (Travis, S. M., B. A. D. Conway, J. Zabner, J. J. Smith, N. N. Anderson, P. K. Singh, E. P. Greenberg, and M. J. Welsh. 1999. Activity of Abundant Antimicrobials of the Human Airway. Am. J. Respir. Cell. Mol. Biol. 20:872-879). As previously described, this assay reports bacterial viability. Briefly, bacteria were grown to exponential phase at 30° C., centrifuged, and resuspended in 20 mM potassium phosphate with 2% Lauria-Bertani medium. […] After incubation at 30° C. for 4 hours, luminescence was measured with a luminometer (MLX Luminometer; Dynex Technologies Inc.; Chantilly, Va.). […]

S. aureus = test: Growth in carbon-starved M9 media (O.D.); assay type: cell-based; details: M9 media supplemented at 100 mM
Experimental: (§1) FIGS. 5(A-G). Effect of xylitol on growth of different airway pathogens. A, B and C. Growth of P. aeruginosa (A), S. aureus, (B), and coagulase-negative Staphylococcus (C) were measured as O. D. M9 media alone is indicated by open triangle. Xylitol (closed circle), or succinate, mannitol, or sucrose (open circles), were added to M9 media at 100 mM as indicated. D. Nasal swabs were collected and cultured for 3 days in Lauria-Bertani media (open circles), in minimal M9 media (open squares), or in M9 media supplemented with 100 mM xylitol (closed circles). E, F and G. P. aeruginosa (E), S. aureus (F), and coagulase-negative Staphylococcus (G) were cultured in Lauria-Bertani media alone (open triangles), Lauria-Bertani media with 100 mM xylitol (closed circles), and Lauria-Bertani media containing tobramycin or levofloxacin (open circles).
To test the effect of xylitol on growth of different airway pathogens in a carbon-starved media, P. aeruginosa, S. aureus, and coagulase-negative Staphylococcus were grown overnight in Lauria-Bertani medium. The bacteria were then centrifuged and resuspended in M9 media containing either 100 mM succinate, mannitol, or sucrose, respectively, and grown overnight at 37° C. […] The optical density (O.D.) was measured after 0, 1, 2, and 4 hours at 600 nm on a Beckman DU640 Spectrophotometer (Schaumburg, Ill.). […]

[2] = system: bacteria from the nasal surface; test: Growth of normal nasal flora from nasal swabs in M9 media; assay type: cell-based; details: M9 media with 100 mM xylitol, 72 hours at 37° C.
Experimental: as §1
To test the effect of xylitol on growth of normal nasal flora in a carbon-starved media, nasal swabs were obtained from 3 normal volunteers and the swabs were inoculated into M9 media alone, M9 with 100 mM xylitol, or Lauria-Bertani media. The media were incubated at 37° C. for 72 hours and the O.D. were recorded.
It was tested whether xylitol would support bacterial growth. P. aeruginosa were placed in M9 media, which lacks a carbon source. […] In contrast, there was no growth of P. aeruginosa when M9 media was supplemented with xylitol. […]

In the case of `OC[C@@H](O)[C@H](O)[C@@H](O)CO` [xylitol], the “toxicity observed after intravenous delivery” value ([1]; 5-50% solution in water at 1-4.5 g/Kg intravenously, changes reversible) is given as “increases in serum uric acid and elevated liver enzymes”, the “adverse effect in children” value ([1]; delivered in large amounts) is given as “osmotic diarrhea” and the “killing of E. coli by nasal lavage fluid” value (E. coli) is given as “not affected”. For the same compound, the “growth of S. aureus” value (S. aureus) was “failed to support growth” and the “growth of bacteria from nasal swabs” value [2] was “no growth”.
